In patent US8153819B2, “Fungicidal mixtures comprising substituted 1-methylpyrazol-4-ylcarboxanilides” (BASF SE, priority 2005, dated 2012):

Columns and labels:
Botrytis cinerea = assay: Activity against gray mold on bell pepper leaves caused by Botrytis cinerea, 1 day protective application; assay type: in vivo; details: 1 day protective spray, read after 5 days
Experimental: (§1) The active compounds, separately or jointly, were prepared as a stock solution comprising 25 mg of active compound which was made up to 10 ml using a mixture of acetone and/or dimethyl sulfoxide and the emulsifier Uniperol® EL (wetting agent having an emulsifying and dispersing action based on ethoxylated alkylphenols) in a ratio by volume of solvent/emulsifier of 99:1. The mixture was then made up to 100 ml with water. This stock solution was diluted with the solvent/emulsifier/water mixture described to give the concentration of active compound stated below.
(§2) As an alternative, the active compounds epoxiconazole, triticonazole and pyraclostrobin were used as commercially available ready-to-use formulation and diluted to the specified active compound concentration with water.
(§3) The visually determined percentages of infected leaf areas were converted into efficacies in % of the untreated control:
(§4) The efficacy (E) is calculated as follows using Abbot's formula: E=(1−α/β)·100 α corresponds to the fungicidal infection of the treated plants in % and β corresponds to the fungicidal infection of the untreated (control) plants in %
(§5) An efficacy of 0 means that the infection level of the treated plants corresponds to that of the untreated control plants; an efficacy of 100 means that the treated plants are not infected.
(§6) The expected efficacies of active compound combinations were determined using Colby's formula (Colby, S. R. “Calculating synergistic and antagonistic responses of herbicide combinations”, Weeds, 15, 20-22, 1967) and compared with the observed efficacies.
(§7) Colby's formula: E=x+y−x·y/100 • E expected efficacy, expressed in % of the untreated control, when using the mixture of the active compounds A and B at the concentrations a and b; • x efficacy, expressed in % of the untreated control, when using the active compound A at the concentration a; • y efficacy, expressed in % of the untreated control, when using the active compound B at the concentration b.
Bell pepper seedlings of the cultivar “Neusiedler Ideal Elite” were, after 2-3 leaves were well developed, sprayed to runoff point with an aqueous suspension in the active compound concentration specified below. The next day, the treated plants were inoculated with a spore suspension of Botrytis cinerea which contained 1.7×10^6 spores/ml in a 2% strength aqueous biomalt solution. The test plants were then placed in a climatized chamber at 22 to 24° C., darkness and high atmospheric humidity. After 5 days, the extent of the fungal infection on the leaves could be determined visually in %.

[1] = tested on: Pyrenophora [syn. Drechslera] teres; assay: Activity against net blotch of barley caused by Pyrenophora teres, 1 day protective application; assay type: in vivo; details: barley seedlings sprayed 24 h before inoculation, read after 6 days, efficacy in % of untreated control (Abbot)
Experimental: as §1, §2, §3
The efficacy (E) is calculated as follows using Abbot's formula: E=(1−α/β)·100 α corresponds to the fungicidal infection of the treated plants in % and β corresponds to the fungicidal infection of the untreated (control) plants in % […]
(§8) The expected efficacies of active compound combinations were determined using Colby's formula (Colby, S. R. “Calculating synergistic and antagonistic responses of herbicide combinations”, Weeds, 15, 20-22, 1967) and compared with the observed efficacies. […]

Puccinia recondita = assay: Curative activity against brown rust of wheat caused by Puccinia recondita; assay type: in vivo; details: curative spray 1 day after inoculation, read after 7 days
Experimental: as §1, §2, §3, §4, §5, §6, §7
Leaves of potted wheat seedlings of the cultivar “Kanzler” were inoculated with a spore suspension of brown rust (Puccinia recondita). The pots were then placed in a chamber with high atmospheric humidity (90 to 95%) and 20 to 22° C. for 24 hours. During this time, the spores germinated and the germ tubes penetrated into the leaf tissue. The next day, the infected plants were sprayed to runoff point with the above-described active compound solution having the active compound concentration stated below. After the spray coating had dried on, the test plants were cultivated in a greenhouse at temperatures between 20 and 22° C. and 65 to 70% relative atmospheric humidity for 7 days. The extent of the rust fungal development on the leaves was then determined.

Alternaria solani = assay: Activity against early blight of tomato caused by Alternaria solani (protective spray); assay type: in vivo; details: tomato leaves sprayed 1 day before infection, read after 5 days, efficacy in % of untreated control (Abbot)
Experimental: as §1, §2, §3, §4, §5, §8
Leaves of potted tomato plants were sprayed to runoff point with an aqueous suspension having the active compound concentration stated below. […] After 5 days, the disease on the untreated but infected control plants had developed to such an extent that the infection could be determined visually in %.

Cn1cc(C(=O)Nc2ccccc2-c2cc(F)c(F)c(F)c2)c(CF)n1 [No. Ig. 344, N-(3′,4′,5′-trifluorobiphenyl-2-yl)-3-fluoromethyl-1-methyl-1H-pyrazole-4-carboxamide]
melting point: 152 to 156 °C

COc1ccc(C(=CC(=O)N2CCOCC2)c2ccc(Cl)cc2)cc1OC [dimethomorph]
Observed activity (% infection) (Botrytis cinerea; 4 mg/l): 0% | Observed activity (% infection) (Botrytis cinerea; 16 mg/l): 0% | Observed activity (% infection) (Botrytis cinerea; 63 mg/l): 0%

COc1cc(C)c(C(=O)c2c(OC)ccc(Br)c2C)c(OC)c1OC [metrafenone]
Observed activity (% infection) (Botrytis cinerea; 4 mg/l): 0% | Observed activity (% infection) (Botrytis cinerea; 16 mg/l): 0% | Observed activity (% infection) (Botrytis cinerea; 63 mg/l): 0%

Fc1ccc([C@]2(Cn3cncn3)O[C@H]2c2ccccc2Cl)cc1 (racemic) [epoxiconazole, (2RS,3SR)-1-[3-(2-chlorophenyl)-2,3-epoxy-2-(4-fluorophenyl)propyl]-1H-1,2,4-triazole, reference compound]
Observed activity (% infection) ([1]; 0.063 mg/l): 0% | Observed activity (% infection) (Puccinia recondita; 0.063 mg/l): 0%

N#Cc1c(Cl)c(Cl)c(Cl)c(C#N)c1Cl [chlorthalonil, 2,4,5,6-tetrachloroisophthalonitrile, reference compound]
Observed activity (% infection) (Puccinia recondita; 16 mg/l): 0% | Observed activity (% infection) (Alternaria solani; 63 mg/l): 0%

CC1(C)CCC(=Cc2ccc(Cl)cc2)C1(O)Cn1cncn1 (centres unmarked) [triticonazole]
Observed activity (% infection) (Puccinia recondita; 1 mg/l): 0% | Observed activity (% infection) (Botrytis cinerea; 4 mg/l): 0%

zinc ammoniate ethylenebis(dithiocarbamate) [metiram, reference compound]
Observed activity (% infection) (Alternaria solani; 63 mg/l): 0% | Observed activity (% infection) (Botrytis cinerea; 16 mg/l): 0%

COC(=O)N(OC)c1ccccc1COc1ccn(-c2ccc(Cl)cc2)n1 [pyraclostrobin, methyl N-{2-[1-(4-chlorophenyl)-1H-pyrazol-3-yloxymethyl]phenyl}(N-methoxy)carbamate, reference compound]
Observed activity (% infection) (Puccinia recondita; 1 mg/l): 0% | Observed activity (% infection) (Alternaria solani; 4 mg/l): 50%

Cn1nc(Cl)c(C(=O)Nc2ccccc2-c2cc(F)c(F)c(F)c2)c1CF [No. Ij. 344, N-(3′,4′,5′-trifluorobiphenyl-2-yl)-3-chlorofluoromethyl-1-methyl-1H-pyrazole-4-carboxamide]
melting point: 154 to 157 °C

Cn1cc(C(=O)Nc2ccccc2-c2cc(F)c(F)c(F)c2)c(C(F)F)n1 [No. Id.344, N-(3′,4′,5′-trifluorobiphenyl-2-yl)-3-difluoromethyl-1-methyl-1H-pyrazole-4-carboxamide]
Observed activity (% infection) ([1]; 0.25 mg/l): 67% | Observed activity (% infection) (Puccinia recondita; 1 mg/l): 0% | Observed activity (% infection) (Botrytis cinerea; 1 mg/l): 40%

CC1CCN(c2c(-c3c(F)cc(F)cc3F)c(Cl)nc3ncnn23)CC1 [5-chloro-7-(4-methyl-piperidin-1-yl)-6-(2,4,6-trifluorophenyl)-[1,2,4]tri-azolo[1,5-a]pyrimidine]
Observed activity (% infection) (Puccinia recondita; 4 mg/l): 40%

Cn1nc(Cl)c(C(=O)Nc2ccccc2-c2cc(F)c(F)c(F)c2)c1C(F)F [No. Ih. 344, N-(3′,4′,5′-trifluorobiphenyl-2-yl)-3-chlorodifluoromethyl-1-methyl-1H-pyrazole-4-carboxamide]
melting point: 158 to 161 °C
